This passage reports IC50 and Kd results from US20230227428A1 (Anaxis Pharma Pty Ltd, priority 2020, published 2023).

In assay [1] the test system is U937 cells. Description: Counter screen: cell viability of U937 cells treated with compound without the TSQ cocktail (off-target effect). The note with it: Homo sapiens, U-937, compound in DMSO without the TSQ cocktail, cell viability by CelltiterGlo, read-out: Off-target effect (IC50 cell-based assay). As for the experimental part:
(§1) Cell Line ID: U937 human histiocytic leukemia cell line.
(§2) The cellular assay was carried out according to the following steps: • 1. Each well was prepared by sequential addition of: • a. DMSO (control; columns 1-2 and 23-24) or compound in DMSO—addition was performed using acoustic transfer of nl volumes of stock compound to give final test concentrations of 36, 12, 4, 1.3, 0.44, 0.148, 0.049, 0.016, 0.005 and 0.002 μM. All wells were backfilled with DMSO to a final total volume in the well of 100 nl. • b. Following compound/DMSO addition in step (a), 40 μL of cell suspension (5×10^5 cells/mL) was added to provide a final cell concentration of 20,000 cells per well, and • c. Following cell addition in step (b), 10 μL of 5×TSQ cocktail (except to positive controls; […]) was added to each well. • 2. After 48 hours, plate was removed from the 37° C. incubator and equilibrated to room temperature for 45 minutes. • 3. 15 μL of room temperature CellTitre-Glo2™ (Promega™) was added to each well. • 4. Shook plates for 2 minutes (˜600 rpm) and incubated at room temperature for 15 minutes to allow signal to stabilise. • 5. Read luminescence readout on a plate reader.
(§3) Curve fitting: 10-point titration curves are fitted with the 4-parameter logistic nonlinear regression model and the IC50 reported is the inflection point of the curve
Counter screen: In parallel, all compounds were tested for their ability to affect cell viability. The same U937 cells were treated with compound in DMSO without the TSQ cocktail. This counter screen enabled evaluation of off-target effects. In this case, cell viability was measured by CelltiterGlo.
(In general: The purpose of a counterscreen is to sort out artefacts and off-target activity.)

Assay [2] relates to U937 human histiocytic leukemia cell line. Description: Cellular assay: inhibition of TSQ induced necroptosis, 384 well plate format. The note with it: U-937, U937 cells, TSQ cocktail (TNF, Smac mimetic, Q-VD-OPh), 48 hours, CellTitre-Glo, read-out: Inhibition of TSQ-induced necroptosis (IC50 cell-based assay). As for the experimental part:
Cellular Assay: Screening Compounds for Inhibition of TSQ Induced Necroptosis, 384 Well Plate Format.
as §1
Cell Concentration (cells/well): Final cell density is 20000 cells per well.
Cell growth medium: HT-RPMI medium+7.4% Fetal Bovine Serum (FBS). Cells are cultured in Corning 150 cm^2 tissue culture flasks with vented caps at 37° C./5% CO2.
Incubation: Plates were incubated at 37° C./5% CO2 in a humidified incubator for 48 hours following addition of compounds and death stimuli (TSQ cocktail).
Compound concentration: 36 μM starting concentration, 1:3 dilution, 10 point
DMSO final concentration (% v/v): 0.3%.
Compounds in TSQ cocktail (T: TNF; S: Smac mimetic; Q: Q-VD-OPh) and their final concentrations:
hTNF-Fc (100 ng/ml)—produced by standard procedures as shown in Bossen et al., J Biol Chem, 2006, 281(20), 13964-13971.
Compound A (500 nM)—Smac mimetic, Tetralogic and SYNthesis med chem Q-VD-OPh (10 μM)—MP Biomedicals
as §2
Percent viability was calculated for each compound according to equation (2):
% viability=100×((RawData−NSA)/(TA−NSA) (2)
wherein RawData is the readout of any cell containing a compound of the invention TA is the total activity provided by the luminescence readout from DMSO only wells (columns 2 and 24)=100% viability NSA is the non-specific activity provided by DMSO+TSQ wells (columns 1 and 23)=0% viability
as §3
Analysis: Data was loaded into Dotmatics™ and visualised using the Tibco® Spotfire™ software. points titration curve were fitted with the 4 parameter logistic nonlinear regression model and the IC50 reported reflect the inflection point of the curve for curve fitting.
Assay involving the TSQ cocktail (T: TNF; S: Smac mimetic; Q: Q-VD-OPh): TSQ treatment ensures that cells specifically undergo necroptotic cell death. TNF activates the TNF receptor, Smac mimetic directs the signal away from proinflammatory signaling and toward the RIP1/RIP3-mediated cell death pathways, and Q-VD-OPh ensures that the apoptotic response is blocked leaving only the programmed necrosis response. The compounds' activity (solution in DMSO) tested in this TSQ-induced assay was evaluated by determining the number of viable cells in culture by measuring the amount of ATP present as measured by CelltiterGlo.

The target in assay [3] is T1, MLKL (full length) (Homo sapiens, UniProt Q8NB16).
T1 construct: purchased DiscoverX (KINOMEscan service); host or cells: E. coli BL21-derived host (T7 phage) or HEK-293
T1 sequence (Q8NB16 1-471): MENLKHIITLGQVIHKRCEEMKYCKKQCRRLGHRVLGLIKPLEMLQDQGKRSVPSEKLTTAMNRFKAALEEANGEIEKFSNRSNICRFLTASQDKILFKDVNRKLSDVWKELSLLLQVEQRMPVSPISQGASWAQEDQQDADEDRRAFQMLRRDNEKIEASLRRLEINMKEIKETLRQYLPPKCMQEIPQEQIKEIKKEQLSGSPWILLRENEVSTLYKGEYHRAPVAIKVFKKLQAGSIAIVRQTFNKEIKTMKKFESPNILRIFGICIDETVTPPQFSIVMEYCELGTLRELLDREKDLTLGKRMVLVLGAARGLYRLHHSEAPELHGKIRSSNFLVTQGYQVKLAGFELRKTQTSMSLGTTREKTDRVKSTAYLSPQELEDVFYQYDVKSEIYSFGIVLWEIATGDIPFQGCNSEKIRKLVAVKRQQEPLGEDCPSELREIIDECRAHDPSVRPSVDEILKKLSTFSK
Description: KINOMEscan binding affinity assay, MLKL. As to conditions: equilibrium dissociation constant. An excerpt: (§4) The Hill Slope was set to −1.

Assay [4] concerns the target T2, RIP3 (Homo sapiens, UniProt Q9Y572).
T2 construct: purchased DiscoverX (KINOMEscan service); host or cells: E. coli BL21-derived host (T7 phage) or HEK-293
Nature of the assay: KINOMEscan binding affinity assay, RIP3. As to conditions: equilibrium dissociation constant.
Excerpt: as §4

The target in assay [5] is T3, RIP1 (Homo sapiens, UniProt Q13546).
T3 construct: purchased DiscoverX (KINOMEscan service); host or cells: E. coli BL21-derived host (T7 phage) or HEK-293
T3 sequence (Q13546 1-671): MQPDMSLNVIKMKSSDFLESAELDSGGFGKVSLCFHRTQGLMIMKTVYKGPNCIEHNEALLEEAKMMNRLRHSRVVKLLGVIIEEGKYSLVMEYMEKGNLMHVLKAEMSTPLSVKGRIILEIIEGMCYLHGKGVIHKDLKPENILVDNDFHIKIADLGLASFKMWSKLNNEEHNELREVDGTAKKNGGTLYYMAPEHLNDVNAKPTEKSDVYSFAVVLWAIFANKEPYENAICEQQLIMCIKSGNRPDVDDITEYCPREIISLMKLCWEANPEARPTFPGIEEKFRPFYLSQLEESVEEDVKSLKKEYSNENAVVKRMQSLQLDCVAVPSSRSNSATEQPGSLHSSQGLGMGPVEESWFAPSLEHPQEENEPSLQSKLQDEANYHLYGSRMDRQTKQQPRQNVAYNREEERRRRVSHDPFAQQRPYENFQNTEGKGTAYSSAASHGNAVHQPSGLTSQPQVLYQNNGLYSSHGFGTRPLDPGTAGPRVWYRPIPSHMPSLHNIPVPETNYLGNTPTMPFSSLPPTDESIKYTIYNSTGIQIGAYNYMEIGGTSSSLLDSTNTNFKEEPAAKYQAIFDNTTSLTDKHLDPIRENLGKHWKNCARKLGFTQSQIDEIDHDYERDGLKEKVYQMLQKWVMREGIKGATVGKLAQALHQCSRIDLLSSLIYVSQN
Description: KINOMEscan binding affinity assay, RIP1. The note with it: equilibrium dissociation constant.
Excerpt: as §4

pIC50, pKd: −log10 of the molar value.

T2 sequence (Q9Y572 whole entry): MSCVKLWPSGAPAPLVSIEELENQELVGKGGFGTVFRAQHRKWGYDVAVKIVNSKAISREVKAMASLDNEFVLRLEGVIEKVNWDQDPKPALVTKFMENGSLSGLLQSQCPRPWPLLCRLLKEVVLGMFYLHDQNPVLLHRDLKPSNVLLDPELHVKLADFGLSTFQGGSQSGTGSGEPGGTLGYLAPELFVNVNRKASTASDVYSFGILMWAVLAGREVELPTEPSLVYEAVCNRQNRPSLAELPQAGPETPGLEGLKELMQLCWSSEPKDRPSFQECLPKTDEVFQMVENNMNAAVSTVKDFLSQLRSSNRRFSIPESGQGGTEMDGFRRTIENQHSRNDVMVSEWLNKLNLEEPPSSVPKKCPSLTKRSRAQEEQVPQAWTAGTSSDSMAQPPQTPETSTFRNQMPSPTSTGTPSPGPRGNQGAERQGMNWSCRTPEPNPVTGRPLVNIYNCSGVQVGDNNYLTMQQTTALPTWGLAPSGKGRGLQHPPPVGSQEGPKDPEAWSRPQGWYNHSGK

In the case of `NC(=O)c1c(-c2ccc(NC(=O)Cc3ccccc3)cc2)n[nH]c1Nc1ccccn1` [Compound 3, 3-(4-(2-phenyl-acetamido)phenyl)-5-(pyridin-2-ylamino)-1H-pyrazole-4-carboxamide], the pIC50 in assay [1] and in assay [2] was less than 6.00 each time. For the same compound, the pKd (commonly the Kd on a negative log10 scale, so that one unit is a factor of ten) in assay [3] is greater than 7.00; in assay [4] it was less than 6.00.

In the case of `NC(=O)c1c(-c2ccc(NC(=O)Cc3ccsc3)cc2)n[nH]c1Nc1ccccn1` [Compound 13, 5-(pyridin-2-ylamino)-3-(4-(2-(thiophen-3-yl)acetamido)phenyl)-1H-pyrazole-4-carboxamide], the negative logarithm of the IC50 (pIC50) (commonly the negative decadic logarithm of the IC50, by convention in mol/L) in assay [1] was less than 6.00; in assay [2], 6.00 to 7.00. Moreover, the pKd in assay [3] is greater than 7.00; in assay [4] it was less than 6.00; in assay [5], 6.00 to 7.00.

In the case of `NC(=O)c1c(-c2ccc(NC(=O)Cc3ccc(Cl)cc3)cc2)n[nH]c1Nc1cnccn1` [Compound 21, 3-(4-(2-(4-chlorophenyl)acetamido)phenyl)-5-(pyrazin-2-ylamino)-1H-pyrazole-4-carboxamide], the pIC50 in assay [1] and in assay [2] was less than 6.00 throughout. Also, the pKd was greater than 7.00 in assay [3], less than 6.00 in assay [4] and less than 6.00 in assay [5].

Consider `NC(=O)c1c(-c2ccc(NC(=O)Cc3ccc(C(F)(F)F)cc3)cc2)n[nH]c1Nc1cnccn1` [Compound 22, 5-(pyrazin-2-ylamino)-3-(4-(2-(4-(trifluoromethyl)phenyl)acetamido)phenyl)-1H-pyrazole-4-carboxamide], for which the negative logarithm of the IC50 (pIC50) in assay [1] and in assay [2] was less than 6.00 in each case. In addition, the negative-log Kd (pKd) in assay [3] was greater than 7.00; in assay [4], less than 6.00; in assay [5], less than 6.00.

With `NC(=O)c1c(-c2ccc(NC(=O)Cc3cccc(OC(F)(F)F)c3)cc2)n[nH]c1Nc1cnccn1` [Compound 23, 5-(pyrazin-2-ylamino)-3-(4-(2-(3-(trifluoromethoxy)phenyl)acetamido)phenyl)-1H-pyrazole-4-carboxamide], the pIC50 in assay [1] was less than 6.00; in assay [2], greater than 7.00. For the same compound, the pKd is greater than 7.00 in assay [3], less than 6.00 in assay [4] and 6.00 to 7.00 in assay [5].

Turning to `NC(=O)c1c(-c2ccc(NC(=O)Cc3cccc(C(F)(F)F)c3)cc2)n[nH]c1Nc1cnccn1` [Compound 24, 5-(pyrazin-2-ylamino)-3-(4-(2-(3-(trifluoromethyl)phenyl)acetamido)phenyl)-1H-pyrazole-4-carboxamide], the negative logarithm of the IC50 (pIC50) in assay [1] was less than 6.00; in assay [2] it was 6.00 to 7.00. Besides, the pKd in assay [3] is greater than 7.00; in assay [4], less than 6.00; in assay [5] it was 6.00 to 7.00.

As to `COc1cccc(CC(=O)Nc2ccc(-c3n[nH]c(Nc4cnccn4)c3C(N)=O)cc2)c1` [Compound 25, 3-(4-(2-(3-methoxyphenyl)acetamido)phenyl)-5-(pyrazin-2-ylamino)-1H-pyrazole-4-carboxamide], the pIC50 in assay [1] and in assay [2] was less than 6.00 throughout. For the same compound, the pKd was 6.00 to 7.00 in assay [3], less than 6.00 in assay [4] and less than 6.00 in assay [5].

On to `NC(=O)c1c(-c2ccc(NC(=O)Cc3ccccc3C(F)(F)F)cc2)n[nH]c1Nc1cnccn1` [Compound 27, 5-(pyrazin-2-ylamino)-3-(4-(2-(2-(trifluoromethyl)phenyl)acetamido)phenyl)-1H-pyrazole-4-carboxamide], for which the negative logarithm of the IC50 (pIC50) in assay [1] and in assay [2] was less than 6.00 in each case. Besides, the negative-log Kd (pKd) is greater than 7.00 in assay [3], less than 6.00 in assay [4] and less than 6.00 in assay [5].

Take `NC(=O)c1c(-c2ccc(NC(=O)Cc3ccc(OC(F)(F)F)cc3)cc2)n[nH]c1Nc1cnccn1` [Compound 30, 5-(pyrazin-2-ylamino)-3-(4-(2-(4-(trifluoromethoxy)phenyl)acetamido)phenyl)-1H-pyrazole-4-carboxamide]: the negative logarithm of the IC50 (pIC50) in assay [1] was less than 6.00; in assay [2], 6.00 to 7.00. Further, the negative logarithm of the Kd (pKd) in assay [3] is greater than 7.00; in assay [4], less than 6.00; in assay [5], less than 6.00.

For the compound `NC(=O)c1c(-c2ccc(NC(=O)Cc3ccccc3Cl)cc2)n[nH]c1Nc1cnccn1` [Compound 32, 3-(4-(2-(2-chlorophenyl)acetamido)phenyl)-5-(pyrazin-2-ylamino)-1H-pyrazole-4-carboxamide], the negative-log IC50 (pIC50) in assay [1] is less than 6.00; in assay [2], 6.00 to 7.00. Besides, the figures for the negative-log Kd (pKd) in assay [3] and in assay [4] were greater than 7.00 and less than 6.00, respectively.

With `COCCOc1ccc(Nc2[nH]nc(-c3ccc(NC(=O)Cc4ccccc4)cc3)c2C(N)=O)nc1` [Compound 44, 5-((5-(2-methoxyethoxy)pyridin-2-yl)amino)-3-(4-(2-phenyl-acetamido)phenyl)-1H-pyrazole-4-carboxamide], the pIC50 in assay [1] is less than 6.00; in assay [2], 6.00 to 7.00. Further, the pKd in assay [3] is greater than 7.00; in assay [4], 6.00 to 7.00; in assay [5] it was 6.00 to 7.00.

In the case of `NC(=O)c1c(-c2ccc(NC(=O)N3CCC[C@H](c4cccc(F)c4)C3)cc2)n[nH]c1Nc1cccc(C(F)(F)F)n1` [Compound 80, (R)-N-(4-(4-carbamoyl-5-((6-(trifluoromethyl)pyridin-2-yl)amino)-1H-pyrazol-3-yl)phenyl)-3-(3-fluorophenyl)piperidine-1-carboxamide], the pIC50 in assay [1] was less than 6.00; in assay [2], greater than 7.00. Further, the pKd in assay [3] was greater than 7.00; in assay [4], less than 6.00.
